The values that follow come from US20250325711A1, “COVALENT FLUORESCENT PROBES FOR CANNABINOID RECEPTOR 2” (Hoffmann-La Roche Inc., priority 2022, published 2025).

This assay deals with hCB2R (Homo sapiens (Human), UniProt P34972). Briefly: TR-FRET hCB2R Binding Assay. The note with it: SNAP-tagged human CB2R HEK293-TR cell membranes, TR-FRET (HTRF) detection, nonspecific binding with 1 μM SR144528; read-out: Kd hCB2R. Background: In TR-FRET formats the signal depends on donor and acceptor labels being close together.

`COc1cc(C(C)(C)CCCCCCN=[N+]=[N-])cc(OC)c1[C@H]1C=C(CNC(=O)CCCCCCOc2c(F)c(F)c3c(c2F)C2(OC3=O)c3ccc(N4CCC4)cc3[Si](C)(C)c3cc(N4CCC4)ccc32)[C@H]2C[C@@H]1C2(C)C` [Example 19, N-(((1S,4S,5S)-4-(4-(8-azido-2-methyloctan-2-yl)-2,6-dimethoxyphenyl)-6,6-dimethylbicyclo[3.1.1]hept-2-en-2-yl)methyl)-7-((3,7-di(azetidin-1-yl)-4′,5′,7′-trifluoro-5,5-dimethyl-3′-oxo-3′H,5H-spiro[dibenzo[b,e]siline-10,1′-isobenzofuran]-6′-yl)oxy)heptanamide]: the Kd was 2 nM.

A word on the Kd: it is the free concentration of one partner at which half of the binding sites on the other are occupied at equilibrium, for simple one-to-one binding.
